Experimental data reported in patent US11214779B2, “Activatable CRISPR/CAS9 for spatial and temporal control of genome editing” (University of Pittsburgh—Of the Commonwealth System of …, priority 2015, dated 2022).

Test system: pIRG dual reporter in HEK 293T cells
Assay: Small molecule activation of Cas9-OABK in live cells (DsRed/EGFP dual reporter assay)
Type: cell-based, human
Details: for Concentration dependence of EGFP expression (activation of gene editing): varying concentrations (0-500 μM) of phosphine, Cas9-OABK
Description: HEK 293T cells were seeded into a 96-well cell culture microplate (Greiner), and incubated overnight in DMEM growth media supplemented with 10% FBS and 1% penicillin/streptomycin at 37° C. in 5% CO2 humidified atmosphere. Before transfection, media was replaced with antibiotics-free DMEM supplemented with or without OABK (0.25 mM). Quadruple transfections were carried out with linear PEI using pMbOABKRS-wtCas9 or pMbOABKRS-Cas9-K866TAG, p4CMVE-U6-PylT (Gautier et al., J Am Chem Soc 132, 4086-4088, 2010), gRNA plasmids (Hemphill et al., J Am Chem Soc 137, 5642-5645, 2015), and pRG dual reporter plasmid ((Hemphill et al., J Am Chem Soc 137, 5642-5645, 2015)) (100 ng of each). After a 24 h incubation, cells were washed with fresh DMEM and incubated for 2 h. For regulating gene editing in live cells, HEK 293T cells were treated with 5 (0.5 mM) or without 5. After overnight incubation, media was replaced with DMEM without phenol red, and cells were imaged on a Zeiss Observer Z1 microscope (10× objective, NA 0.8 plan-apochromat) with EGFP BP470/40; Em: BP525/50) and DsRed BP550/25; Em: BP605/70) filter cubes. Fluorescent cell counting was performed on a Nikon A1 confocal microscope (10× objective) and analyzed using Elements software.
The function of Cas9-OABK in the absence and presence of phosphine derivatives 5 and 6 (see FIG. 14) was investigated using a DsRed/EGFP dual reporter assay (FIG. 15A). […] Once Cas9-OABK is activated by the small molecule phosphine, the complex of functional Cas9 and gRNAs induces excision of the DsRed-terminator cassette, followed by NHEJ repair, and leading to EGFP expression.

| SMILES | Concentration dependence of EGFP expression (activation of gene editing) | Effective concentration of phosphine for activation of Cas9-OABK (live HEK 293T cells, concentrations 0-500 μM tested) |
| --- | --- | --- |
| O=C(O)c1ccccc1P(c1ccccc1)c1ccccc1 [compound 5, 2-(diphenylphosphino)benzoic acid] | dose-dependent |  |
| NC(=O)c1ccccc1P(c1ccccc1)c1ccccc1 [compound 6, 2-(diphenylphosphino)benzamide] | dose-dependent | 25 µM |
